The NIST ThermoML archive (doi:10.1016/j.jct.2018.11.014)
± gives the expanded uncertainty stated by the source.

Test: molar heat capacity at constant pressure
Conditions: 101.33 kPa, Crystal, Vacuum adiabatic calorimetry

O=C(CO)[C@@H](O)[C@H](O)[C@H](O)CO [D-fructose]
Conditions | molar heat capacity at constant pressure [J/K/mol]
10 K | 0.91 ± 0.02
14.06 K | 2.815 ± 0.037
14.48 K | 3.13 ± 0.04
14.92 K | 3.379 ± 0.043
15.36 K | 3.634 ± 0.045
15.81 K | 3.919 ± 0.049
16.27 K | 4.218 ± 0.052
16.77 K | 4.66 ± 0.056
17.29 K | 5.05 ± 0.06
17.75 K | 5.334 ± 0.063
18.24 K | 5.753 ± 0.067
18.76 K | 6.186 ± 0.072
19.31 K | 6.585 ± 0.076
19.89 K | 7.065 ± 0.081
20 K | 7.19 ± 0.08
20.47 K | 7.626 ± 0.086
21.03 K | 8.082 ± 0.091
21.55 K | 8.514 ± 0.095
22.09 K | 9.015 ± 0.1
22.64 K | 9.566 ± 0.11
23.22 K | 10.1 ± 0.11
23.84 K | 10.61 ± 0.12
24.41 K | 11.21 ± 0.12
24.96 K | 11.67 ± 0.13
25.84 K | 12.67 ± 0.14
26.71 K | 13.5 ± 0.14
27.31 K | 14.07 ± 0.15
28.19 K | 14.91 ± 0.16
29.03 K | 15.7 ± 0.17
29.58 K | 16.16 ± 0.17
30 K | 16.66 ± 0.18
30.14 K | 16.84 ± 0.18
30.73 K | 17.43 ± 0.18
31.35 K | 18.05 ± 0.19
31.98 K | 18.53 ± 0.19
32.62 K | 19.19 ± 0.2
33.28 K | 19.89 ± 0.21
33.96 K | 20.59 ± 0.21
34.65 K | 21.26 ± 0.22
35.36 K | 21.95 ± 0.23
36.07 K | 22.67 ± 0.23
36.78 K | 23.42 ± 0.24
37.5 K | 24.11 ± 0.25
38.21 K | 24.83 ± 0.26
38.91 K | 25.52 ± 0.26
39.6 K | 26.21 ± 0.27
40 K | 26.59 ± 0.27
40.28 K | 26.89 ± 0.28
40.99 K | 27.59 ± 0.28
41.73 K | 28.3 ± 0.29
42.48 K | 29.02 ± 0.3
43.26 K | 29.78 ± 0.31
44.03 K | 30.54 ± 0.31
44.8 K | 31.29 ± 0.32
45.6 K | 32.07 ± 0.33
46.41 K | 32.85 ± 0.34
47.23 K | 33.62 ± 0.34
48.05 K | 34.43 ± 0.35
48.87 K | 35.18 ± 0.36
49.66 K | 35.98 ± 0.37
50 K | 36.27 ± 0.37
50.46 K | 36.72 ± 0.38
51.3 K | 37.5 ± 0.38
52.17 K | 38.33 ± 0.39
53.08 K | 39.16 ± 0.4
54 K | 40.03 ± 0.41
54.92 K | 40.88 ± 0.42
55.87 K | 41.75 ± 0.43
56.84 K | 42.65 ± 0.44
57.8 K | 43.54 ± 0.45
58.75 K | 44.39 ± 0.45
59.68 K | 45.25 ± 0.46
60 K | 45.54 ± 0.47
60.61 K | 46.09 ± 0.47
61.55 K | 46.94 ± 0.48
62.48 K | 47.76 ± 0.49
63.4 K | 48.61 ± 0.5
64.31 K | 49.43 ± 0.5
65.22 K | 50.22 ± 0.51
66.18 K | 51.08 ± 0.52
67.16 K | 51.94 ± 0.53
68.22 K | 52.9 ± 0.54
69.33 K | 53.88 ± 0.55
70 K | 54.46 ± 0.55
70.43 K | 54.83 ± 0.56
71.5 K | 55.79 ± 0.57
72.63 K | 56.77 ± 0.58
73.81 K | 57.78 ± 0.59
74.97 K | 58.8 ± 0.6
76.11 K | 59.77 ± 0.61
77.23 K | 60.74 ± 0.62
78.4 K | 61.72 ± 0.63
79.61 K | 62.76 ± 0.64
80 K | 63.1 ± 0.64
80.81 K | 63.77 ± 0.65
81.98 K | 64.8 ± 0.66
83.14 K | 65.76 ± 0.67
84.34 K | 66.77 ± 0.68
85.59 K | 67.84 ± 0.69
86.82 K | 68.83 ± 0.7
88.03 K | 69.88 ± 0.71
89.22 K | 70.89 ± 0.72
90 K | 71.52 ± 0.74
90.46 K | 71.89 ± 0.74
91.74 K | 72.99 ± 0.76
93 K | 73.99 ± 0.77
94.24 K | 75.03 ± 0.78
95.47 K | 76.03 ± 0.79
96.74 K | 77.1 ± 0.8
98.05 K | 78.13 ± 0.81
99.34 K | 79.2 ± 0.82
100 K | 79.73 ± 0.82
100.61 K | 80.23 ± 0.83
101.88 K | 81.25 ± 0.84
103.17 K | 82.3 ± 0.85
104.51 K | 83.38 ± 0.86
105.83 K | 84.42 ± 0.87
107.14 K | 85.5 ± 0.88
108.44 K | 86.51 ± 0.89
109.77 K | 87.55 ± 0.9
110 K | 87.77 ± 0.9
111.13 K | 88.69 ± 0.91
112.49 K | 89.72 ± 0.92
113.83 K | 90.79 ± 0.93
115.15 K | 91.82 ± 0.94
116.54 K | 92.94 ± 0.95
118 K | 94.07 ± 0.96
119.43 K | 95.21 ± 0.97
120 K | 95.65 ± 0.98
120.86 K | 96.29 ± 0.99
122.27 K | 97.42 ± 1
123.72 K | 98.53 ± 1
125.19 K | 99.73 ± 1
126.66 K | 100.86 ± 1
128.15 K | 101.99 ± 1
129.65 K | 103.12 ± 1.1
130 K | 103.4 ± 1.1
131.18 K | 104.32 ± 1.1
132.78 K | 105.56 ± 1.1
134.41 K | 106.79 ± 1.1
136.01 K | 107.97 ± 1.1
137.61 K | 109.25 ± 1.1
139.24 K | 110.5 ± 1.1
140 K | 111.05 ± 1.1
140.9 K | 111.75 ± 1.1
142.55 K | 112.96 ± 1.1
144.18 K | 114.21 ± 1.2
145.81 K | 115.47 ± 1.2
147.46 K | 116.73 ± 1.2
149.19 K | 117.96 ± 1.2
150 K | 118.61 ± 1.2
150.94 K | 119.3 ± 1.2
152.67 K | 120.61 ± 1.2
154.39 K | 121.92 ± 1.2
156.15 K | 123.22 ± 1.2
157.94 K | 124.55 ± 1.3
159.71 K | 125.9 ± 1.3
160 K | 126.11 ± 1.3
161.48 K | 127.16 ± 1.3
163.23 K | 128.53 ± 1.3
165.01 K | 129.85 ± 1.3
166.83 K | 131.22 ± 1.3
168.63 K | 132.53 ± 1.4
170 K | 133.55 ± 1.4
170.42 K | 133.87 ± 1.4
172.26 K | 135.21 ± 1.4
174.19 K | 136.66 ± 1.4
176.16 K | 138.12 ± 1.4
178.11 K | 139.54 ± 1.4
180 K | 140.95 ± 1.4
180.05 K | 140.98 ± 1.4
181.97 K | 142.44 ± 1.4
183.93 K | 143.86 ± 1.5
185.92 K | 145.37 ± 1.5
187.9 K | 146.78 ± 1.5
189.86 K | 148.24 ± 1.5
190 K | 148.33 ± 1.5
191.82 K | 149.62 ± 1.5
193.8 K | 151.13 ± 1.5
195.89 K | 152.65 ± 1.6
198.03 K | 154.23 ± 1.6
200 K | 155.71 ± 1.6
200.16 K | 155.79 ± 1.6
202.27 K | 157.38 ± 1.6
204.41 K | 158.97 ± 1.6
206.59 K | 160.59 ± 1.6
208.75 K | 162.27 ± 1.6
210 K | 163.12 ± 1.6
210.91 K | 163.79 ± 1.7
213.05 K | 165.43 ± 1.7
215.22 K | 166.88 ± 1.7
217.41 K | 168.61 ± 1.7
219.6 K | 170.28 ± 1.7
220 K | 170.57 ± 1.7
221.78 K | 172.01 ± 1.7
223.94 K | 173.59 ± 1.8
226.14 K | 175.1 ± 1.8
228.44 K | 176.89 ± 1.8
230 K | 178.09 ± 1.8
230.8 K | 178.65 ± 1.8
233.16 K | 180.52 ± 1.8
235.5 K | 182.33 ± 1.8
237.87 K | 184.07 ± 1.9
240 K | 185.67 ± 1.9
240.27 K | 185.87 ± 1.9
242.65 K | 187.7 ± 1.9
245.03 K | 189.43 ± 1.9
247.39 K | 191.32 ± 1.9
249.78 K | 193.01 ± 1.9
250 K | 193.28 ± 1.9
252.2 K | 194.95 ± 2
254.6 K | 196.74 ± 2
257 K | 198.58 ± 2
259.38 K | 200.5 ± 2
260 K | 200.91 ± 2
261.79 K | 202.31 ± 2
264.29 K | 204.15 ± 2.1
266.82 K | 206.25 ± 2.1
269.35 K | 208.09 ± 2.1
270 K | 208.52 ± 2.1
271.87 K | 210.03 ± 2.1
274.41 K | 211.71 ± 2.1
276.98 K | 213.84 ± 2.2
279.54 K | 215.75 ± 2.2
280 K | 216.17 ± 2.2
282.08 K | 217.72 ± 2.2
284.61 K | 219.77 ± 2.2
287.17 K | 221.78 ± 2.2
289.76 K | 223.86 ± 2.3
290 K | 224.03 ± 2.3
292.33 K | 225.93 ± 2.3
294.92 K | 227.98 ± 2.3
297.52 K | 230.08 ± 2.3
298.15 K | 230.55 ± 2.3
300 K | 232.04 ± 2.3
300.15 K | 232.18 ± 2.3
302.81 K | 234.38 ± 2.4
305.45 K | 236.46 ± 2.4
308.08 K | 238.4 ± 2.4
310 K | 240.14 ± 2.4
310.7 K | 240.73 ± 2.4
313.34 K | 242.98 ± 2.5
316 K | 244.99 ± 2.5
318.66 K | 247.19 ± 2.5
320 K | 248.27 ± 2.5
321.3 K | 249.35 ± 2.5
323.93 K | 251.32 ± 2.5
326.58 K | 253.53 ± 2.6
329.26 K | 255.9 ± 2.6
330 K | 256.36 ± 2.6
